Laboratory results taken from patent US8648086B2, “5,6-bicyclic heteroaryl-containing urea compounds as kinase inhibitors” (Ascepion Pharmaceuticals, Inc., priority 2009, dated 2014).

What was measured:
[1] = target: T1, c-Kit (Homo sapiens, UniProt P10721); assay: KINOMEscan competition binding assay, c-Kit; settings: compound at 100 nM; lower number indicates stronger hit
T1 construct: purchased KINOMEscan service (Ambit Biosciences, San Diego)
Procedure: (§1) A standard competition binding assay can be used to test the ability of a compound of this invention on competing with both intended and unintended kinases in vitro. To screen a compound against a large number of human kinases, a competition binding assay with an active-site dependent binding technology was performed by KINOMEscan service (Ambit Biosciences, San Diego, Cal., USA). Three components were combined in this assay—DNA-tagged kinase, immobilized ligand, and the test compound. The ability of the test compound to compete with the immobilized ligand was measured by quantitative PCR of the DNA of the DNA tag. A number of the compounds of this invention were screened at the concentration of 100 nM by this binding assay, and the results were reported as “% Ctrl,” and the lower number indicates stronger “hit” in this matrix.

[2] = target: T2, CSF-1R (Homo sapiens, UniProt P07333); assay: KINOMEscan competition binding assay, CSF-1R; settings: compound at 100 nM; lower number indicates stronger hit
T2 construct: purchased KINOMEscan service (Ambit Biosciences, San Diego)
Procedure: as §1

[3] = system: PC-3 human prostate cancer cells; assay: In vivo anti-tumor efficacy, PC-3 xenograft; settings: Prostate cancer PC-3, nu/nu Balb/c mice, 50 mg/kg oral once per day, n = 2 × 3
Procedure: (§2) Female (nu/nu) Balb/c athymic mice at 4-6 weeks of age were injected subcutaneously (s.c.) with MDA-MB-231 human breast cancer cells, A549 human non-small cell lung cancer cells, U87-MG human glioblastoma cells, PC-3 human prostate cancer cells, HT-29 human colon cancer, BEL-7404 human hepatocellular carcinoma, or MKN-45 human gastric cancer cells (ATCC, 5×10^6 cells suspended in 100 μl DMEM medium). Treatment was initiated after the tumor mass grown from s.c. implanted tumor cells reached a median volume of 200-400 mm^3. Mice were randomized into groups with three in each group for small-sample efficacy tests such that the median tumor volume is nearly equal among all groups. For large-sample efficacy tests, mice were randomized into groups with thirteen or fourteen in each group. Each group was treated either with compounds (dissolved in 2:1 mixture of PEG400 and 0.01N HCl (v/v)) or without compounds (vehicle only, 2:1 mixture of PEG400 and 0.01N HCl (v/v)) once per day at dose 12.5, 25, 50 or 100 mg/kg by oral gavage. Tumor volumes were assessed at least twice weekly by caliper measurement from the start of treatment. Tumor volume was calculated using the formula ½×L×W^2 (L: length of tumor's long axis, W: length of tumor's short axis). Treatment was applied for at least two weeks or until the tumor volume reaches a size of ˜2500 mm^3 or greater. Mice were humanly sacrificed after the experiment. The efficacy of compounds in reducing tumor growth was assessed by the index Tumor Growth Inhibition (TGI). TGI for a given treatment period was calculated using the group mean tumor volumes according to the formula: TGI=100×(VVehicle—group−VTreatment—group)÷VVehicle—group wherein VVehicle—group represents the mean tumor volume for the group treated with vehicle and VTreatment—group represents the mean tumor volume of the group treated with a compound.

[4] = system: HT-29 human colon cancer; assay: In vivo anti-tumor efficacy, HT-29 xenograft; settings: Colon cancer HT-29, nu/nu Balb/c mice, 50 mg/kg oral once per day, n = 2 × 3
Procedure: as §2, with “For large-sample efficacy tests, mice were randomized into groups with thirteen or fourteen in each group. Each group was treated either with compounds (dissolved in 2:1 mixture of PEG400 and 0.01N HCl (v/v)) or without compounds (vehicle only, 2:1 mixture of PEG400 and 0.01N HCl (v/v)) once per day at dose 12.5, 25, 50 or 100 mg/kg by oral gavage.” left out, “Treatment was applied for at least two weeks or until the tumor volume reaches a size of ˜2500 mm^3 or greater. Mice were humanly sacrificed after the experiment.” left out

[5] = target: T3, EPHA2 (Homo sapiens, UniProt P29317); assay: KINOMEscan competition binding assay, EPHA2; settings: compound at 100 nM; lower number indicates stronger hit
T3 construct: purchased KINOMEscan service (Ambit Biosciences, San Diego)
Procedure: as §1

[6] = system: A549 human non-small cell lung cancer cells; assay: In vivo anti-tumor efficacy, A549 xenograft; settings: Non-small cell lung cancer A549, nu/nu Balb/c mice, 50 mg/kg oral once per day, n = 2 × 3
Procedure: as §2

[7] = target: T4, PDGFRβ (Homo sapiens, UniProt P09619); assay: PDGFRβ cell-based assay (phospho-PDGFRβ ELISA, transfected CHO cells); settings: compound at 100 nM, read-out: % PDGFRβ kinase activity remains
T4 construct: expressed in transfected cells; host or cells: CHO cells, pcDNA3.1 plasmid
Method in brief: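 CHO cells transiently transfected with full-length human PDGFRβ, serum-starved overnight in DMEM, then treated 2 h with compound (0.5–500 nM) before 20% FBS stimulation. Lysates of ~5×10^5 cells analysed by sandwich ELISA for phospho- and total PDGFRβ with streptavidin-HRP chemiluminescent detection.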

T4 sequence (P09619 33-1106, species assumed): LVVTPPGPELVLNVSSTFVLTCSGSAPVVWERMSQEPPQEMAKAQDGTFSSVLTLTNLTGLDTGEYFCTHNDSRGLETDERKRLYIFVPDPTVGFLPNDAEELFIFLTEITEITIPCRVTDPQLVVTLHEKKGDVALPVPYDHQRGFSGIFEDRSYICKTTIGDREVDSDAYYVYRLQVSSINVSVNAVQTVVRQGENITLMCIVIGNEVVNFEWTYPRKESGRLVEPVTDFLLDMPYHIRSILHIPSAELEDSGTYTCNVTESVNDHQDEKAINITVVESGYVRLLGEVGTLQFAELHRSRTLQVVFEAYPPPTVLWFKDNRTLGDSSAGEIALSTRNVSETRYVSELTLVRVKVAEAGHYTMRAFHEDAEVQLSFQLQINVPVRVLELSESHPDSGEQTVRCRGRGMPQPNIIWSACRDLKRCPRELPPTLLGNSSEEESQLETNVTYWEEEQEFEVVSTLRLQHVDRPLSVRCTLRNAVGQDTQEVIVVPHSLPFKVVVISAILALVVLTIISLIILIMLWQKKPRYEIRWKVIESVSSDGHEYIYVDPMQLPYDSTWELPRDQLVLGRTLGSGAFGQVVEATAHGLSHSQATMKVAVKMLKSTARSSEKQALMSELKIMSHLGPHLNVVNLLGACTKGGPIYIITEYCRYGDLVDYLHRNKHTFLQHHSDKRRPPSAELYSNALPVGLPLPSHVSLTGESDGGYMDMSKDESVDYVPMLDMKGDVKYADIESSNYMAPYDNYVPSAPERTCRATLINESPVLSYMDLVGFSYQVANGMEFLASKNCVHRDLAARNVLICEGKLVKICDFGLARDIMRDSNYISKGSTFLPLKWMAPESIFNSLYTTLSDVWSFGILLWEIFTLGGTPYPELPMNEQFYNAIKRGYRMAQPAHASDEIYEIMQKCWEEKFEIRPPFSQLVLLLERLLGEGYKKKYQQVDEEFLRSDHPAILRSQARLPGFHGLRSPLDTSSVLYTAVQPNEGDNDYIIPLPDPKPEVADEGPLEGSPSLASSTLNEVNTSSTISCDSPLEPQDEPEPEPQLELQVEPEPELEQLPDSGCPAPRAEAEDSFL
T1 sequence (P10721 26-976): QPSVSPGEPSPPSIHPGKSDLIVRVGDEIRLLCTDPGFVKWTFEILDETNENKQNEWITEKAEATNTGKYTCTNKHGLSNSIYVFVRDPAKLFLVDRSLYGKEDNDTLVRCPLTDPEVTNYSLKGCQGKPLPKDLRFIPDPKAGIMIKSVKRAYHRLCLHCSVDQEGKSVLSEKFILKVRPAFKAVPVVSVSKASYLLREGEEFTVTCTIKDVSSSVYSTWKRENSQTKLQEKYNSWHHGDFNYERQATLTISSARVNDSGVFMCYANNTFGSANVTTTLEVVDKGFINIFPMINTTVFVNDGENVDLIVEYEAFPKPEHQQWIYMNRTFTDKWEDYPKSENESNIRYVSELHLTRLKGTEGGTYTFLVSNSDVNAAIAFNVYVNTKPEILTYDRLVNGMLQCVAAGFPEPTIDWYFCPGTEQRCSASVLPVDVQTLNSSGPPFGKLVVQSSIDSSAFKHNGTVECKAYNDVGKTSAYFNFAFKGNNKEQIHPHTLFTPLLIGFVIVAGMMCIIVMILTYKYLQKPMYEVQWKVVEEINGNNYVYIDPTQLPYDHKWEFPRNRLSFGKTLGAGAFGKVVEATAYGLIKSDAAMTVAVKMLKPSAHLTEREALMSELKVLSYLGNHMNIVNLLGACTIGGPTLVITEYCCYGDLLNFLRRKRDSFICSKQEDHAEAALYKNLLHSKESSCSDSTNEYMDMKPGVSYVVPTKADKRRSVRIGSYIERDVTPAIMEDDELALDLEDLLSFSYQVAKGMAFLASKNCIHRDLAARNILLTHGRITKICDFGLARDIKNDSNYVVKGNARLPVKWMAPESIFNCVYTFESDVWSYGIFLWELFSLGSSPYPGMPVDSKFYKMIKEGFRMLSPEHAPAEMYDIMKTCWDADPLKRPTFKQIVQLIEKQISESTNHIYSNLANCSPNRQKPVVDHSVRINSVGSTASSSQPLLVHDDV
T3 sequence (P29317 24-976): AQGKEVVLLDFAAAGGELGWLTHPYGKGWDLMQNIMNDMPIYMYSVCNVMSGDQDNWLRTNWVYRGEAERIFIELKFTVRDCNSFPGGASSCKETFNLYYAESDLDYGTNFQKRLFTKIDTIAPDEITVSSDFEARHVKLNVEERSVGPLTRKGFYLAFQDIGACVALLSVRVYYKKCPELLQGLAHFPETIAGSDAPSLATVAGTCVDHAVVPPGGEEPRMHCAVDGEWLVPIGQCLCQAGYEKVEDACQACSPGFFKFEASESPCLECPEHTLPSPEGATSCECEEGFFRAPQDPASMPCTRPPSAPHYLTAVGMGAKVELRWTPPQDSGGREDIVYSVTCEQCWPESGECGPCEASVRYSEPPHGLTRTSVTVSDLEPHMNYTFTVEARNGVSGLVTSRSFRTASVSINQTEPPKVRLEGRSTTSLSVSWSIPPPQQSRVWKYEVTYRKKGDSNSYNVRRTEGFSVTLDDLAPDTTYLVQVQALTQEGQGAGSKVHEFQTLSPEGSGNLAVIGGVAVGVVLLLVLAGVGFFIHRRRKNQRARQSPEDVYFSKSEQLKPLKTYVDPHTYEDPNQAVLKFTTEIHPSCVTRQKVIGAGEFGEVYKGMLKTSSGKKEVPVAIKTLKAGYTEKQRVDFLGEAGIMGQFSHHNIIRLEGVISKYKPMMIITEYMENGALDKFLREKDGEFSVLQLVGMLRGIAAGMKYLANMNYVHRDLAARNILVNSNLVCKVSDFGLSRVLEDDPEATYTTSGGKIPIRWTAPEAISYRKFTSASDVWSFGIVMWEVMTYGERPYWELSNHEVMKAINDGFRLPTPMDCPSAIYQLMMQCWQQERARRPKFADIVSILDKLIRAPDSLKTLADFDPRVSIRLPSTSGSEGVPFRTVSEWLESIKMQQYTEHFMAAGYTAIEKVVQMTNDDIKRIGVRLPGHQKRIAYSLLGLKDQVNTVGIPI
T2 sequence (P07333 20-972): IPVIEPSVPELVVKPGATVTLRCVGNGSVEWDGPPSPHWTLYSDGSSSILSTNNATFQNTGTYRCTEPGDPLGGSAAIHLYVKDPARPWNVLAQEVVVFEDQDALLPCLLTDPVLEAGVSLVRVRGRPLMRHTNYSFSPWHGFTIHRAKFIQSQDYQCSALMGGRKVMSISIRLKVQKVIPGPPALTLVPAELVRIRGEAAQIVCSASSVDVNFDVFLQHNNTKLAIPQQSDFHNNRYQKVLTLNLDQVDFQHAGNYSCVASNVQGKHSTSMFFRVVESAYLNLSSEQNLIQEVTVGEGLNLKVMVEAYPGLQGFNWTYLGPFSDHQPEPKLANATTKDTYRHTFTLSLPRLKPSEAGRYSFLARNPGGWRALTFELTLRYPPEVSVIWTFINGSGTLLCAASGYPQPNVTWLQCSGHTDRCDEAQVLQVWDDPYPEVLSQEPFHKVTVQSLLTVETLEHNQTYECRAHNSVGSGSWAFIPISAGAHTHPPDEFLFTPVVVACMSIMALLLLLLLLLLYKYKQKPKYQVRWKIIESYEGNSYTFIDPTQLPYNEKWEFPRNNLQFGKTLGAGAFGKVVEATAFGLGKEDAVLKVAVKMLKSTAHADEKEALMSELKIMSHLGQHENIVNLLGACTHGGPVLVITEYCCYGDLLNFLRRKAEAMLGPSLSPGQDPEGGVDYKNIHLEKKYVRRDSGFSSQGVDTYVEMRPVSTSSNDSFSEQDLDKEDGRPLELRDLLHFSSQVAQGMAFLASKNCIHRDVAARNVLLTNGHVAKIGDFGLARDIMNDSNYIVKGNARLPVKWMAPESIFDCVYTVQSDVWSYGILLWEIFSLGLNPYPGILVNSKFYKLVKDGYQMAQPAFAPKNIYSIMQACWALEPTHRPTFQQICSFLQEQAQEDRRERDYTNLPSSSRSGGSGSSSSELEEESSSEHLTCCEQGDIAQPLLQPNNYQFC

Row | SMILES | c-Kit % Ctrl [1] [% Ctrl] | CSF-1R % Ctrl [2] [% Ctrl] | Tumor Growth Inhibition (TGI) [3] | Tumor Growth Inhibition (TGI) [4] | EPHA2 % Ctrl [5] [% Ctrl] | Tumor Growth Inhibition (TGI) [6] | remaining activity at 0.1 µM [7] [%]
1 | Cl.O=C(Nc1cc(Cl)ccc1F)Nc1cccc2c1ccn2Cc1ccnc2[nH]ccc12 [Example 56, 1-(2-Fluoro-5-chlorophenyl)-3-[1-(1H-pyrrolo[2,3-b]pyridin-4-ylmethyl)-1H-indol-4-yl]urea hydrochloride] | 3.8 | 3.4 | A (the TGI is greater or equal to 50%) | A (the TGI is greater or equal to 50%) | 12 | A (the TGI is greater or equal to 50%) | 
2 | Cl.O=C(Nc1cccc(C(F)(F)F)c1)Nc1cccc2c1ccn2Cc1ccnc2[nH]ccc12 [Example 51, 1-(3-Trifluoromethylphenyl)-3-[1-(1H-pyrrolo[2,3-b]pyridin-4-ylmethyl)-1H-indol-4-yl]urea hydrochloride] |  |  | A (the TGI is greater or equal to 50%) |  |  | A (the TGI is greater or equal to 50%) | ≥ 70
